Test results published in patent publication US20190030009A1, “COMPOUNDS AND COMPOSITIONS FOR THE TREATMENT OF CRYPTOSPORIDIOSIS” (Novartis AG, priority 2016, published 2019).
pEC50, pIC50: −log10 of the molar value.

Experiments:
[1] = system: Cryptosporidium parvum; assay: Cytopathic effect (CPE) based assay, C. parvum infected HCT-8 cells; details: HCT-8 host cell viability (CellTiter-Glo), 48 hours treatment, read-out: Cp CPE EC50
How it was run: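 HCT-8 cells were batch-infected with excysted C. parvum (Iowa isolate) oocysts at MOI 1:2 (host:parasite) for 3 h at 37 °C, then seeded and incubated 24 h before compound addition. Compounds were given as 3-fold dilution series (final DMSO <0.5%). Host-cell loss (cytopathic effect) was read as viability with CellTiter-Glo.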

[2] = system: C. parvum; assay: High content imaging assay, C. parvum infected HCT-8 cells; format: cell-based; details: Cryptosporidium parvum, percentage of infected HCT-8 cells, 48 hours treatment, read-out: Cp HCl IC50
Method: (§1) Human ileocecal colorectal adenocarcinoma cells (HCT-8 [HRT-18] ATCC, CCL-34) were maintained in T-175 flasks (Corning, 431080) in complete growth medium (RPMI-1640 medium (Gibco, 11875) supplemented with 10% heat-inactivated horse serum (Gibco, 26050), 1×MEM non-essential amino acids (Gibco, 11140), 10 mM HEPES (Gibco, 15630), 100 units/mL penicillin, and 100 units/mL streptomycin) at 37° C. and 5% CO2 in a humidified incubator. Cultures were passaged twice weekly using 10 mL of 1×Phosphate-Buffered Saline (PBS) without Ca^2+ and Mg^2+ (Gibco, 20012) for washing and 3-5 mL per T-175 flask of TrypLE Express Enzyme (Gibco, 12604) for dissociation of adherent cells.
Cryptosporidium parvum oocysts purchased from the Sterling Laboratory, University of Arizona (Iowa isolate) were purified from infected calf feces using discontinuous sucrose and cesium chloride centrifugation gradients and stored in PBS solution containing 0.01% Tween 20, 100 units/mL penicillin and 100 units/mL gentamicin.
(§2) Excystation and infection protocols were developed following established methods with some modifications (Gut & Nelson, 1999, Upton et aL, 1995, Bessoff et aL, 2013). Briefly, oocysts were primed in 1 mL of 10 mM hydrochloric acid in 1× Hank's Balanced Salt Solution (HBSS) (Gibco, 14025) for 10 minutes with agitation at 1000 rpm, 37° C. on an Eppendorf thermomixer, then washed twice with 1 mL of room temperature non-acidic 1× HBSS by centrifugation at 13,000 rpm for 3 minutes at 25° C. Primed oocysts were further excysted at a concentration of 1×10^6 oocysts/μL in parasite infection medium consisting of a pre-warmed and pre-gassed 1:1 formulation of Leibovitz's L-15 medium (Gibco, 11415) and UltraCULTURE medium (Lonza, 12-725F) supplemented with 2 mM sodium taurocholate (Sigma, 86339-1), 10% heat-inactivated horse serum, and 200 μM L-ascorbic acid (Sigma, 95210) at 25° C. for 10 minutes. HCT-8 monolayer cells were infected with excysted cryptosporidium at a specified multiplicity of infection (MOI). All dilutions for subsequent assays were performed in parasite infection medium without sodium taurocholate. Pre-excysted oocysts were enumerated microscopically using a C-Chip disposable hemocytometer (NanoEnTek, DHC-N01).
(§3) Compound powders were dissolved in neat DMSO (Fisher, D4121) to 10 mM and stored at 4° C. prior to dilution into source plates. Dilutions were carried out using a Microlab STAR liquid handler (Hamilton) to obtain compound source plates containing the ten-point or eight-point three fold dilutions starting from 10 mM in duplicates. Source plates were stored at 4° C. prior to spotting into assay plates. Before administration, all compound source plates were equilibrated to room temperature. A specified volume of compounds from source plate were spotted to assay plate using an Echo Acoustic liquid handler (LABCYTE, 550) so that the final DMSO concentration was less than 0.5%. Each assay plate a specified number of DMSO-treated negative control wells and a well-studied potent active compound at 100 nM as positive control. As a quality control, all positive and negative-control wells were used to calculate a Z′-value and signal to noise ratio (S:N) for each plate.
Imaging assays were developed following established Cryptosporidium spp labeling and in vitro infection models with some modifications (Bessoff et aL, 2013, Gut & Nelson, 1999). Briefly, 2×10^4 HCT-8 cells per well were seeded into 384-well, flat black clear-bottom OPERA assay plates (Greiner, 789071-G) at 20 μL per well in complete growth medium using a Multidrop Combi liquid handler (ThermoScientific, 5840300) and standard tube dispensing cassette (ThermoScientific, 24072670) and incubated for 24 hours at 37° C. The HCT-8 cells were infected with 10 μL per well of 1×10^4 excysted C. parvum oocysts (host to parasite MOI of 1:0.5) or 10 μL per well of 4×10^4 excysted C. hominis oocysts (MOI 1:2) in parasite infection medium using the Multidrop and incubated at 37° C. […]

[3] = Cytotoxicity against HepG2; format: cell-based; details: human, HepG2 cells (ATCC HB-8065), 5 days exposure
How it was run: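 Cells seeded at 10^5 per well, held 24 h at 37 °C, then exposed to two-fold serial dilutions of compound for 5 days. Viability read with Cell Proliferation Kit II (XTT); values reported as CC50.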

[4] = system: Cryptosporidium hominis; assay: Cytopathic effect (CPE) based assay, C. hominis infected HCT-8 cells; details: HCT-8 host cell viability (CellTiter-Glo), 48 hours treatment, read-out: Ch CPE EC50
Method: as §1
Cryptosporidium hominis oocysts were purchased from the Tufts University Cummings School of Veterinary Medicine (courtesy of Dr. Saul Tzipori). C. hominis oocysts were purified from infected gnotobiotic piglet feces and stored in PBS solution containing 0.01% Tween-20, 100 units/mL penicillin and 100 units/mL gentamicin. C. parvum and C. hominis oocysts less than three months old from the date of shedding were used in infection experiments.
as §2, §3
Cryptosporidium spp are obligate-intracellular parasites that infect intestinal epithelial cells and the host cell is killed upon parasite egress. […] The loss of epithelial cells is due to both rapid parasite invasion/multiplication/egress and also pro-inflammatory immune response (Adams et al., 1994, Griffiths et al., 1994). We have observed a consistent cytopathic effect (CPE) in HCT-8 cells with C. spp infection the loss of viability of the host cells using CellTiter-Glo reagent.
Confluent HCT-8 cells in T-175 flasks were directly infected with excysted oocysts at an MOI (host to parasite) of 1:2 for C. parvum and 1:4 for C. hominis. […]

pIC50 [2]	SMILES	pEC50 [1]	CC50 at 5 days [3] [nM]	pEC50 [4]
8.10	CNC(=O)c1ccc(-c2cnn3ccc(C(=O)N(C)c4ccc(C(F)(F)F)cc4)cc23)cc1 [Example 103]	8.15	8060	
7.24	CN(C(=O)c1ccn2ncc(-c3ccc(C(N)=O)cc3)c2c1)c1ccc(C#N)cn1 [Example 32]	7.03	15800	6.92
	CNC(=O)c1ccc(-c2cnn3ccc(C(=O)N(c4ccc(C#N)cn4)C(C)(C)C)cc23)cc1 [Example 119]	5.71	20100	5.71
